Experimental data from the supplement of paper PMC10733146.

Columns and labels:
Assay in all cases: viability relative to DMSO control (fraction); higher = less drug effect (more viable cells)
Settings in all cases: 48 h
Cladribine = compound: Nc1nc(Cl)nc2c1ncn2[C@H]1C[C@H](O)[C@@H](CO)O1 [Cladribine]
Method in brief: (§1)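 In 384-well plates with compounds pre-plated at five concentrations (one well per concentration), primary mononuclear tumour cells were plated at 4 × 10^4 cells per well. The cells came from blood or bone marrow by Ficoll isolation or from processed lymph node, and were used fresh or cryopreserved. Culture ran for 48 h at 37 °C and 5% CO2 in RPMI-1640 containing penicillin/streptomycin, L-glutamine and human serum. Viability was read as CellTiter-Glo luminescence, normalised to the median of 16 inner DMSO wells.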

[1] = compound: CC(C)(C)OC(=O)Nc1ccc(-c2cc(C(=O)NCCCCCCC(=O)NO)no2)cc1
Method in brief: as §1

MLN-120B = compound: COc1c(Cl)cc2c([nH]c3cnccc32)c1NC(=O)c1cccnc1C [MLN-120B]
Method in brief: as §1

Vorinostat = compound: O=C(CCCCCCC(=O)Nc1ccccc1)NO [Vorinostat]
Method in brief: as §1

Quizartinib = compound: CC(C)(C)c1cc(NC(=O)Nc2ccc(-c3cn4c(n3)sc3cc(OCCN5CCOCC5)ccc34)cc2)no1 [Quizartinib]
Method in brief: as §1

ERK5-IN-1 = compound: CCOc1cc(C(=O)N2CCC(N3CCN(C)CC3)CC2)ccc1Nc1ncc2c(n1)N(C1CCCC1)c1ccccc1C(=O)N2C [ERK5-IN-1]
Method in brief: as §1

EPZ-5676 = compound: CC(C)N(C[C@H]1O[C@@H](n2cnc3c(N)ncnc32)[C@H](O)[C@@H]1O)[C@H]1C[C@@H](CCc2nc3cc(C(C)(C)C)ccc3[nH]2)C1 [EPZ-5676]
Method in brief: as §1

ONO-4059 = compound: CC#CC(=O)N1CC[C@@H](n2c(=O)n(-c3ccc(Oc4ccccc4)cc3)c3c(N)ncnc32)C1 [ONO-4059]
Method in brief: as §1

BEZ235 = compound: Cn1c(=O)n(-c2ccc(C(C)(C)C#N)cc2)c2c3cc(-c4cnc5ccccc5c4)ccc3ncc21 [BEZ235]
Method in brief: as §1

Nilotinib = compound: Cc1cn(-c2cc(NC(=O)c3ccc(C)c(Nc4nccc(-c5cccnc5)n4)c3)cc(C(F)(F)F)c2)cn1 [Nilotinib]
Method in brief: as §1

Obatoclax mesylate = compound: COC1=CC(c2cc3ccccc3[nH]2)=N/C1=C\c1[nH]c(C)cc1C [Obatoclax mesylate]
Method in brief: as §1

TMP269 = compound: O=C(NCC1(c2nc(-c3ccccc3)cs2)CCOCC1)c1cccc(-c2noc(C(F)(F)F)n2)c1 [TMP269]
Method in brief: as §1

Birinapant = compound: CC[C@H](NC(=O)[C@H](C)NC)C(=O)N1C[C@@H](O)C[C@H]1Cc1c(-c2[nH]c3cc(F)ccc3c2C[C@@H]2C[C@H](O)CN2C(=O)[C@H](CC)NC(=O)[C@H](C)NC)[nH]c2cc(F)ccc12 [Birinapant]
Method in brief: as §1

BI6727 = compound: CC[C@@H]1C(=O)N(C)c2cnc(Nc3ccc(C(=O)N[C@H]4CC[C@H](N5CCN(CC6CC6)CC5)CC4)cc3OC)nc2N1C(C)C [BI6727]
Method in brief: as §1

[2] = compound: OCc1ccc(-c2ccc(-c3ccc(CO)s3)o2)s1
Method in brief: as §1

primary ALL patient cells (S088) gave a viability (Cladribine; 0.024 µM) of 0.397, a viability (Cladribine; 0.12 µM) of 0.178 and a viability (Cladribine; 0.6 µM) of 0.122. It also gave a viability (Cladribine; 3 µM) of 0.0996, a viability (Cladribine; 15 µM) of 0.0732 and a viability ([1]; 0.024 µM) of 0.612. For the same test system, the viability ([1]; 0.12 µM) was 0.528, the viability ([1]; 0.6 µM) was 0.264 and the viability ([1]; 3 µM) was 0.127. For the same test system, the viability ([1]; 15 µM) was 0.063, the viability (MLN-120B; 0.024 µM) was 0.199 and the viability (MLN-120B; 0.12 µM) was 0.231. For the same test system, the viability (MLN-120B; 0.6 µM) was 0.233, the viability (MLN-120B; 3 µM) was 0.248 and the viability (MLN-120B; 15 µM) was 0.24. The viability (Vorinostat; 0.016 µM) was 0.991, the viability (Vorinostat; 0.08 µM) was 0.777 and the viability (Vorinostat; 0.4 µM) was 0.366. The viability (Vorinostat; 2 µM) was 0.157, the viability (Vorinostat; 10 µM) was 0.109 and the viability (Quizartinib; 0.016 µM) was 0.809. For the same test system, the viability (Quizartinib; 0.08 µM) was 0.765, the viability (Quizartinib; 0.4 µM) was 0.775 and the viability (Quizartinib; 2 µM) was 0.741. The viability (Quizartinib; 10 µM) was 0.676, the viability (ERK5-IN-1; 0.024 µM) was 0.841 and the viability (ERK5-IN-1; 0.12 µM) was 0.851. For the same test system, the viability (ERK5-IN-1; 0.6 µM) was 0.472, the viability (ERK5-IN-1; 3 µM) was 0.39 and the viability (ERK5-IN-1; 15 µM) was 0.114. The viability (EPZ-5676; 0.0032 µM) was 0.74, the viability (EPZ-5676; 0.016 µM) was 0.922 and the viability (EPZ-5676; 0.08 µM) was 0.812. For the same test system, the viability (EPZ-5676; 0.4 µM) was 0.874, the viability (EPZ-5676; 2 µM) was 0.917 and the viability (ONO-4059; 0.0016 µM) was 1.03. For the same test system, the viability (ONO-4059; 0.008 µM) was 1.14, the viability (ONO-4059; 0.04 µM) was 1.07 and the viability (ONO-4059; 0.2 µM) was 1.04. It also gave a viability (ONO-4059; 1 µM) of 1.02, a viability (BEZ235; 0.024 µM) of 0.751 and a viability (BEZ235; 0.12 µM) of 0.644. For the same test system, the viability (BEZ235; 0.6 µM) was 0.529, the viability (BEZ235; 3 µM) was 0.427 and the viability (BEZ235; 15 µM) was 0.254. For the same test system, the viability (Nilotinib; 0.016 µM) was 1.16, the viability (Nilotinib; 0.08 µM) was 1.16 and the viability (Nilotinib; 0.4 µM) was 1.14. The viability (Nilotinib; 2 µM) was 1.22, the viability (Nilotinib; 10 µM) was 1.26 and the viability (Obatoclax mesylate; 0.024 µM) was 0.977. For the same test system, the viability (Obatoclax mesylate; 0.12 µM) was 0.804, the viability (Obatoclax mesylate; 0.6 µM) was 0.582 and the viability (Obatoclax mesylate; 3 µM) was 0.262. The viability (Obatoclax mesylate; 15 µM) was 0.0738, the viability (TMP269; 0.024 µM) was 0.709 and the viability (TMP269; 0.12 µM) was 0.619. The viability (TMP269; 0.6 µM) was 0.674, the viability (TMP269; 3 µM) was 0.674 and the viability (TMP269; 15 µM) was 0.729. It also gave a viability (Birinapant; 0.0008 µM) of 0.577, a viability (Birinapant; 0.004 µM) of 0.477 and a viability (Birinapant; 0.02 µM) of 0.379. It also gave a viability (Birinapant; 0.1 µM) of 0.316, a viability (Birinapant; 0.5 µM) of 0.229 and a viability (BI6727; 0.024 µM) of 0.796. For the same test system, the viability (BI6727; 0.12 µM) was 0.833, the viability (BI6727; 0.6 µM) was 0.634 and the viability (BI6727; 3 µM) was 0.358. It also gave a viability (BI6727; 15 µM) of 0.078, a viability ([2]; 0.024 µM) of 0.359 and a viability ([2]; 0.12 µM) of 0.306. It also gave a viability ([2]; 0.6 µM) of 0.205, a viability ([2]; 3 µM) of 0.128 and a viability ([2]; 15 µM) of 0.0223.

In the case of primary AML patient cells (S002), the viability (Cladribine; 0.024 µM) is reported as 0.456, the viability (Cladribine; 0.12 µM) is reported as 0.412 and the viability (Cladribine; 0.6 µM) is reported as 0.358. For the same test system, the viability (Cladribine; 3 µM) was 0.365, the viability (Cladribine; 15 µM) was 0.349 and the viability ([1]; 0.024 µM) was 1.04. For the same test system, the viability ([1]; 0.12 µM) was 0.659, the viability ([1]; 0.6 µM) was 0.419 and the viability ([1]; 3 µM) was 0.307. It also gave a viability ([1]; 15 µM) of 0.272, a viability (MLN-120B; 0.024 µM) of 0.876 and a viability (MLN-120B; 0.12 µM) of 0.994. It also gave a viability (MLN-120B; 0.6 µM) of 0.805, a viability (MLN-120B; 3 µM) of 0.811 and a viability (MLN-120B; 15 µM) of 0.619. For the same test system, the viability (Vorinostat; 0.016 µM) was 1.08, the viability (Vorinostat; 0.08 µM) was 0.947 and the viability (Vorinostat; 0.4 µM) was 0.663. The viability (Vorinostat; 2 µM) was 0.291, the viability (Vorinostat; 10 µM) was 0.24 and the viability (Quizartinib; 0.016 µM) was 1.11. The viability (Quizartinib; 0.08 µM) was 1.07, the viability (Quizartinib; 0.4 µM) was 1.06 and the viability (Quizartinib; 2 µM) was 1.18. The viability (Quizartinib; 10 µM) was 1.07, the viability (ERK5-IN-1; 0.024 µM) was 1.19 and the viability (ERK5-IN-1; 0.12 µM) was 1.07. For the same test system, the viability (ERK5-IN-1; 0.6 µM) was 0.733, the viability (ERK5-IN-1; 3 µM) was 0.421 and the viability (ERK5-IN-1; 15 µM) was 0.276. For the same test system, the viability (EPZ-5676; 0.0032 µM) was 0.98, the viability (EPZ-5676; 0.016 µM) was 1.08 and the viability (EPZ-5676; 0.08 µM) was 0.936. For the same test system, the viability (EPZ-5676; 0.4 µM) was 1.01, the viability (EPZ-5676; 2 µM) was 1.04 and the viability (ONO-4059; 0.0016 µM) was 1.07. For the same test system, the viability (ONO-4059; 0.008 µM) was 1.08, the viability (ONO-4059; 0.04 µM) was 0.919 and the viability (ONO-4059; 0.2 µM) was 0.971. For the same test system, the viability (ONO-4059; 1 µM) was 0.997, the viability (BEZ235; 0.024 µM) was 0.979 and the viability (BEZ235; 0.12 µM) was 0.963. The viability (BEZ235; 0.6 µM) was 0.868, the viability (BEZ235; 3 µM) was 0.853 and the viability (BEZ235; 15 µM) was 0.409. It also gave a viability (Nilotinib; 0.016 µM) of 1.1, a viability (Nilotinib; 0.08 µM) of 1.24 and a viability (Nilotinib; 0.4 µM) of 1.18. The viability (Nilotinib; 2 µM) was 1.23, the viability (Nilotinib; 10 µM) was 1.31 and the viability (Obatoclax mesylate; 0.024 µM) was 0.904. For the same test system, the viability (Obatoclax mesylate; 0.12 µM) was 0.841, the viability (Obatoclax mesylate; 0.6 µM) was 0.497 and the viability (Obatoclax mesylate; 3 µM) was 0.322. The viability (Obatoclax mesylate; 15 µM) was 0.142, the viability (TMP269; 0.024 µM) was 0.995 and the viability (TMP269; 0.12 µM) was 1.03. The viability (TMP269; 0.6 µM) was 1.02, the viability (TMP269; 3 µM) was 0.83 and the viability (TMP269; 15 µM) was 0.747. The viability (Birinapant; 0.0008 µM) was 0.8, the viability (Birinapant; 0.004 µM) was 0.783 and the viability (Birinapant; 0.02 µM) was 0.66. It also gave a viability (Birinapant; 0.1 µM) of 0.478, a viability (Birinapant; 0.5 µM) of 0.322 and a viability (BI6727; 0.024 µM) of 0.839. It also gave a viability (BI6727; 0.12 µM) of 0.702, a viability (BI6727; 0.6 µM) of 0.553 and a viability (BI6727; 3 µM) of 0.343. It also gave a viability (BI6727; 15 µM) of 0.263, a viability ([2]; 0.024 µM) of 0.897 and a viability ([2]; 0.12 µM) of 0.665. The viability ([2]; 0.6 µM) was 0.411, the viability ([2]; 3 µM) was 0.283 and the viability ([2]; 15 µM) was 0.183.
